Test [1] addresses T1, AXL (Homo sapiens, UniProt P30530).
T1 sequence (P30530 26-894): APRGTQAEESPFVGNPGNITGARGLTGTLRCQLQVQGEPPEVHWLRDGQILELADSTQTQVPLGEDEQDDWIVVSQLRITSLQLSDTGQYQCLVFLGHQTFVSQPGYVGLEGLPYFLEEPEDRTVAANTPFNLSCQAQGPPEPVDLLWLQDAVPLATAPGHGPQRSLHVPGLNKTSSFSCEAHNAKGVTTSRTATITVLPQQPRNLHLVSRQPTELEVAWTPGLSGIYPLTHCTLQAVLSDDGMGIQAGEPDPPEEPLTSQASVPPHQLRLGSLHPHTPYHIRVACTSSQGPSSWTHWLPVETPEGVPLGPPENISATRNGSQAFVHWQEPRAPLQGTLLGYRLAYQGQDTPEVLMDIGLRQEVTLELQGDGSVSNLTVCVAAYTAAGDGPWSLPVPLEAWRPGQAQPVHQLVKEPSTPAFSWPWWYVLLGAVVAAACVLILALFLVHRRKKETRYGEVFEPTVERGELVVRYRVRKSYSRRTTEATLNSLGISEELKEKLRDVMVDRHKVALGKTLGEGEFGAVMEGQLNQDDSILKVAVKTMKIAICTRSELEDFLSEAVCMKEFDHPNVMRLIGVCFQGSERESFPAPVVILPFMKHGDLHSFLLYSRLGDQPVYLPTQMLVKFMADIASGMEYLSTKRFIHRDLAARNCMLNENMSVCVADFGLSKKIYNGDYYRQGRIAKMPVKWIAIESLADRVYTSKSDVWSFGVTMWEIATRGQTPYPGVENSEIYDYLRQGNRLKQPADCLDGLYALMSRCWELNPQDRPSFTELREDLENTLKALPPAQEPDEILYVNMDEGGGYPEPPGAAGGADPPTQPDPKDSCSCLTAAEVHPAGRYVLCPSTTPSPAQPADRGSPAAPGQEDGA
Put plainly: Gas6 ligand-induced tyrosine phosphorylation of human AXL expressed in HEK293T cells. The format is cell-based. Also on record: expressed in transfected cells; host or cells: HEK293T. To be noted: read-out: EC50, inhibition of Gas6 ligand-induced tyrosine phosphorylation of AXL.

Test [2] addresses Jak2 (Homo sapiens, UniProt O60674). The test is described as follows: Protein kinase panel. The class given is biochemical. From the text:
(§1) Purified recombinant AXL kinase was used to screen a library of structures with appropriate drug-like scaffolds to identify potential inhibitors. Hits from the screen were confirmed and r analyzed by selection criteria including Lipinski rules. One pyrrolopyrimidine-based compound was selected for structure-activity relationship efforts. Optimization of this scaffold and subsequent evaluation led to the generation of compound SG1-7079 as the lead candidate inhibitor (FIG. 10). […] SGI-7079 was screened against a panel of protein kinases to determine both selectivity and biochemical potency.

Test [3] has as its target TrkA (Homo sapiens, UniProt P04629). The test is described as follows: Protein kinase panel. The format is biochemical.
Description: as §1

Test [4] deals with TrkB (Homo sapiens, UniProt Q16620). The test is described as follows: Protein kinase panel. The format is biochemical.
TrkB, sequence (Q16620 32-822, species assumed): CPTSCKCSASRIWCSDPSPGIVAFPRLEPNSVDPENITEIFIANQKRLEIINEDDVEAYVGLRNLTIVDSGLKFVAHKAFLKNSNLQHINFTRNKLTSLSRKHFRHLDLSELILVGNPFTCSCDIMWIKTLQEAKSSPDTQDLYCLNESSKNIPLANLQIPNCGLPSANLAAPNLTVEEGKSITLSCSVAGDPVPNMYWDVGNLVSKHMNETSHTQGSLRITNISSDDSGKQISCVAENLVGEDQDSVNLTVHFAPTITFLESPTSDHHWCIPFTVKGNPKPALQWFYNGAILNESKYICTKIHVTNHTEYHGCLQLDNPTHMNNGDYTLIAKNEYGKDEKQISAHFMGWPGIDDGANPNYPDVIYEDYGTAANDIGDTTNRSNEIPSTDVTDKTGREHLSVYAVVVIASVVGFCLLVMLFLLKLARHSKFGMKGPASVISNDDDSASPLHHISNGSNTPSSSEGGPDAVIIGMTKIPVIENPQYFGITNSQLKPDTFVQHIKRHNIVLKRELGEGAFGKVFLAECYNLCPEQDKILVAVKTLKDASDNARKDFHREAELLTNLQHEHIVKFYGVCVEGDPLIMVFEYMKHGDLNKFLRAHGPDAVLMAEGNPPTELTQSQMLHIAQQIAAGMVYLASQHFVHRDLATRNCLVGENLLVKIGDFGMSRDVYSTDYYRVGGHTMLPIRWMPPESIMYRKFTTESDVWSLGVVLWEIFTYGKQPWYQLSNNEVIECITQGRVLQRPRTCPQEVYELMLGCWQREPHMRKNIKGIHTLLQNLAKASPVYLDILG
Description: as §1

In test [5] the target is T2, Tyro3 (Homo sapiens, UniProt Q06418).
T2 sequence (Q06418 41-890): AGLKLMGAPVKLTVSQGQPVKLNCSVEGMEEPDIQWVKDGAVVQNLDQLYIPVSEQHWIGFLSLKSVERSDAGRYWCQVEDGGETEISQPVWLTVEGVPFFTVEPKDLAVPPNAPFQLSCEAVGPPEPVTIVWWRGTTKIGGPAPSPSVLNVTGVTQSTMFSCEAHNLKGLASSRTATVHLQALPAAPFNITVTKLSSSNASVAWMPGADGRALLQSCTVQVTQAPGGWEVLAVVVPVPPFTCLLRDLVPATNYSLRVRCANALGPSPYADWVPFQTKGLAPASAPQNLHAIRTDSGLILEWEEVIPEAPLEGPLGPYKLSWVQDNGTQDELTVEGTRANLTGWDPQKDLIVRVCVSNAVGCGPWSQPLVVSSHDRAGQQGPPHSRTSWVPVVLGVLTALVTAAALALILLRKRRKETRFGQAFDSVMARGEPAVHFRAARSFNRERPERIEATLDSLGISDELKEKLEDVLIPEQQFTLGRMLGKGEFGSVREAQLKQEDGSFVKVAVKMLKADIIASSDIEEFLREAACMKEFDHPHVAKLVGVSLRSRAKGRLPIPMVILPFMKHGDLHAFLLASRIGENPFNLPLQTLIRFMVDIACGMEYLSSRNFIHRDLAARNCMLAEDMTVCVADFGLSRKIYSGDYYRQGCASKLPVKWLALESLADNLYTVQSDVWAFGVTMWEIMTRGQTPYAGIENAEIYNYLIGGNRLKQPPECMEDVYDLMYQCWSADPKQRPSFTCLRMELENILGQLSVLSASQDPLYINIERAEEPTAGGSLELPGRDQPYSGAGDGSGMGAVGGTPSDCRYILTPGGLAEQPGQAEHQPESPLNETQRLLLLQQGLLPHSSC
The test is described as follows: Protein kinase panel. The class given is biochemical.
Description: as §1

The target of test [6] is Syk (Homo sapiens, UniProt P43405). The test is described as follows: Protein kinase panel. The format is biochemical.
Description: as §1

Test [7] has as its target PDGFRβ (Homo sapiens, UniProt P09619). The test is described as follows: Protein kinase panel. The class given is biochemical.
Description: as §1

For test [8], the target named is Flt1 (Homo sapiens, UniProt P17948). Put plainly: Protein kinase panel. The format is biochemical.
Flt1, sequence (P17948 27-1338, species assumed): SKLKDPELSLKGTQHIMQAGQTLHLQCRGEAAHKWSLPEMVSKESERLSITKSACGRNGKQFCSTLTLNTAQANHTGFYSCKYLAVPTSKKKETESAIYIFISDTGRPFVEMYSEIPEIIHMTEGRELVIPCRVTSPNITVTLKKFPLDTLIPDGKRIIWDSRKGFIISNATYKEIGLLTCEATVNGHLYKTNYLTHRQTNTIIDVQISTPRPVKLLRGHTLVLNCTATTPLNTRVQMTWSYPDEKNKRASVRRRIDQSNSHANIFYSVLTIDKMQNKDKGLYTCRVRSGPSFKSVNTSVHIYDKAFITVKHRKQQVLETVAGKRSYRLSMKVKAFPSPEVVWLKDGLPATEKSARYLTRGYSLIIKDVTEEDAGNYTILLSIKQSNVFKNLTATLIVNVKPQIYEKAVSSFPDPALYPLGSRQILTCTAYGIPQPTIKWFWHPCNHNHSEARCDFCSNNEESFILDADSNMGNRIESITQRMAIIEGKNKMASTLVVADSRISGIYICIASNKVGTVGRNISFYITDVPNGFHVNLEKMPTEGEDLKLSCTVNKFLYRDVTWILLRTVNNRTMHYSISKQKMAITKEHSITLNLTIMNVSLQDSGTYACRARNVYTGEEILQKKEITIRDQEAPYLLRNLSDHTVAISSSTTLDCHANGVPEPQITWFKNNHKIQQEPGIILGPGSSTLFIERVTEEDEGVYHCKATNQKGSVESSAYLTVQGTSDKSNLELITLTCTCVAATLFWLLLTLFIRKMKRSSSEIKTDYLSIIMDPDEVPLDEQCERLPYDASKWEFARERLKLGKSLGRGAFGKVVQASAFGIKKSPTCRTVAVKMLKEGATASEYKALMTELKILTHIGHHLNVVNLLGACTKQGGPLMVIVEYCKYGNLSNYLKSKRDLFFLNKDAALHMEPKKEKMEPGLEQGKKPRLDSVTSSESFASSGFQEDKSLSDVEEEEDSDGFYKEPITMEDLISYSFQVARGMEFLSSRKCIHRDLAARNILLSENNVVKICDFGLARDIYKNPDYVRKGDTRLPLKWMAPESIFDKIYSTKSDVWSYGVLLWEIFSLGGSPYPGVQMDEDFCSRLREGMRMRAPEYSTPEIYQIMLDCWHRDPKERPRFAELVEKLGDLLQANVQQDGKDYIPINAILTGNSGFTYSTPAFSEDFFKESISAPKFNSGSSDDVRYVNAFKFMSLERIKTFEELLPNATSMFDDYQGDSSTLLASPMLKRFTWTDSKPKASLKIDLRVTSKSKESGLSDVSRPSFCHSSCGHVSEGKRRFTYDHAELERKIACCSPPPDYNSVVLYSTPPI
Description: as §1

Test [9] concerns the target Ret (Homo sapiens, UniProt P07949). Put plainly: Protein kinase panel. The format is biochemical.
Description: as §1

Test [10] has as its target T1, AXL. The test is described as follows: Inhibition of purified recombinant AXL kinase. The class given is biochemical.
Description: as §1

One compound from patent US20140155397A1, “EMT SIGNATURES AND PREDICTIVE MARKERS AND METHOD OF USING THE SAME” (Board of Regents, priority 2011, published 2014) can be followed below.

PDGFRβ, sequence (P09619 33-1106, species assumed): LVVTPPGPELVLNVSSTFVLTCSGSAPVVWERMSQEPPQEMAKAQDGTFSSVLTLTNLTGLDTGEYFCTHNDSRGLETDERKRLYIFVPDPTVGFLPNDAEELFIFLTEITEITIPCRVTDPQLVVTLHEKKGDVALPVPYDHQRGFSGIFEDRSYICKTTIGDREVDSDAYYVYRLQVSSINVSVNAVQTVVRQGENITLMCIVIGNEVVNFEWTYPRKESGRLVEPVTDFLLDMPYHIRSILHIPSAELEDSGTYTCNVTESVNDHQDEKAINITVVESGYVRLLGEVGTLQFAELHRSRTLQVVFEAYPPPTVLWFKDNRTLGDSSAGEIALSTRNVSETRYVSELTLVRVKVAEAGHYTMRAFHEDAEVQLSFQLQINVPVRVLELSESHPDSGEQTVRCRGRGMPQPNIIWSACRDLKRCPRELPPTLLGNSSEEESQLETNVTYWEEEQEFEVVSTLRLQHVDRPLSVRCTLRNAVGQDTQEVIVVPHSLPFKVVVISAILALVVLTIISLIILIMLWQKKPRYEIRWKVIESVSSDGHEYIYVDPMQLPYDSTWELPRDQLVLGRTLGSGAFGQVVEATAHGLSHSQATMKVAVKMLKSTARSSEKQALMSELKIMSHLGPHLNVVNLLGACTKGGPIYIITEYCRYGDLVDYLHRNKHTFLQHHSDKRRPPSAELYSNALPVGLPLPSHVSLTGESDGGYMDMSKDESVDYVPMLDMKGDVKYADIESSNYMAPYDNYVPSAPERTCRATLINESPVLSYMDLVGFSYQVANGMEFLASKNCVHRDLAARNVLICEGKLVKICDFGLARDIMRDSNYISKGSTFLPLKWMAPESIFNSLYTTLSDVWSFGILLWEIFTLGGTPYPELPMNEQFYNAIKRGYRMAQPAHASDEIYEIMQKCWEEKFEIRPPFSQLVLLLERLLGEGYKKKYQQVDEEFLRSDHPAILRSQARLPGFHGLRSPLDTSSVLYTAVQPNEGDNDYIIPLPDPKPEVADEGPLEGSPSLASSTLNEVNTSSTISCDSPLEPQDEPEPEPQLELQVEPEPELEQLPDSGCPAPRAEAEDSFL
Jak2, sequence (O60674 whole entry, species assumed): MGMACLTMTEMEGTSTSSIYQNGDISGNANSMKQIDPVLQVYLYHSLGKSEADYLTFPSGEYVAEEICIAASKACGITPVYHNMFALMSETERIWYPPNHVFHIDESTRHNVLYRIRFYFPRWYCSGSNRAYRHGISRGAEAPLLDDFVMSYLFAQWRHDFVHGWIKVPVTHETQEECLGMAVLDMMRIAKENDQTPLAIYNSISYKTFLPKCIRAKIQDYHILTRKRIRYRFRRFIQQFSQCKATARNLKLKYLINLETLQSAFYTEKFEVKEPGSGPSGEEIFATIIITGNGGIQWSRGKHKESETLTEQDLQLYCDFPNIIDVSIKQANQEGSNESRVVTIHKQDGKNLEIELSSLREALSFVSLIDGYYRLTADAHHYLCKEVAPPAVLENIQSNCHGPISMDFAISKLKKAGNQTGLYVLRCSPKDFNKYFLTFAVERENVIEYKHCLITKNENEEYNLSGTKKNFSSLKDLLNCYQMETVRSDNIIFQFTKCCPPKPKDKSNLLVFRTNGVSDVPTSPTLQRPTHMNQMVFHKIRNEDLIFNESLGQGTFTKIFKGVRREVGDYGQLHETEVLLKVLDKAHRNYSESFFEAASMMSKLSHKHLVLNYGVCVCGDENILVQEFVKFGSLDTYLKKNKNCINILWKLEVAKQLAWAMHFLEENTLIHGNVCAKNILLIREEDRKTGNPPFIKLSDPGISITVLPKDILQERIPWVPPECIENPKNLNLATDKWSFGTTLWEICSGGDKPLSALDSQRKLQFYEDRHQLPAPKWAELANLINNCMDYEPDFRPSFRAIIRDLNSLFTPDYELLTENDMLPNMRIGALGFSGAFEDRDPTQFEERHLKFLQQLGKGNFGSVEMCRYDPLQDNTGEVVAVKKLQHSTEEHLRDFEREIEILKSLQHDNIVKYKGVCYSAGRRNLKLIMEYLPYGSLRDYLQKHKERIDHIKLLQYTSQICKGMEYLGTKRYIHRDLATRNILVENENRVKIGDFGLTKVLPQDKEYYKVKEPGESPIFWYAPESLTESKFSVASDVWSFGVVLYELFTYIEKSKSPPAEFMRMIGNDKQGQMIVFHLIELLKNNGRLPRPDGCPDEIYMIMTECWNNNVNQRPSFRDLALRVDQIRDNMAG
TrkA, sequence (P04629 33-796, species assumed): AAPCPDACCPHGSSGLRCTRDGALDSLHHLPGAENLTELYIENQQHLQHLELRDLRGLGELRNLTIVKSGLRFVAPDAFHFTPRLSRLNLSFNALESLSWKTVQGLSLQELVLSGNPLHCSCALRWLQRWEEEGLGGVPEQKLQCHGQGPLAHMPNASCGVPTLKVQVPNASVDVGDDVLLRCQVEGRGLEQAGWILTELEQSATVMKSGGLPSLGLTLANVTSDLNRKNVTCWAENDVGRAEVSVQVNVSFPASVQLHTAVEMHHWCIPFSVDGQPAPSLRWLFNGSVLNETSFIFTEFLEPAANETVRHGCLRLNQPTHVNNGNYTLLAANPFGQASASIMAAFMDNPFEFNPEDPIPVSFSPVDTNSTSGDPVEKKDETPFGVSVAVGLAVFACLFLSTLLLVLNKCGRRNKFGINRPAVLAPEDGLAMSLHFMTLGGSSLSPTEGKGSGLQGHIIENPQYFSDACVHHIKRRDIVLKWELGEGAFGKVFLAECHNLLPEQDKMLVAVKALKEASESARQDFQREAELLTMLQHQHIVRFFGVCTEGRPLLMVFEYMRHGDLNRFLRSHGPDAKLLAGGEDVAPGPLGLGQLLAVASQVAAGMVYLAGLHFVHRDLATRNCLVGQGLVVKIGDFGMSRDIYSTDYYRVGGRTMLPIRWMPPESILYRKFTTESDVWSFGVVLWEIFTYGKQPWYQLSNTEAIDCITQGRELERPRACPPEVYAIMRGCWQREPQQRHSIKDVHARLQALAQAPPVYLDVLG

Broadly, the EC50 is the concentration that produces a half-maximal response. For orientation: Ki means the dissociation constant of the complex between target and ligand, obtained from inhibition or displacement. In the case of `Cc1c[nH]c2nc(Nc3ccc(N4CCN(C)CC4)c(F)c3)nc(-c3cccc(CC#N)c3)c12` [SGI-7079], the EC50 in test [1] was 100 nM. Besides, the “Inhibition of Jak2” value in [2] is recorded as “potent, low nM inhibition”. Moreover, in test [3], the “Inhibition of TrkA” value is listed as “potent, low nM inhibition”. In addition, the “Inhibition of TrkB” value in [4] is “potent, low nM inhibition”. The “Inhibition of Tyro3” value in test [5] is listed as “similarly as AXL”. Moreover, the “Inhibition of Syk” value in test [6] is “potent, low nM inhibition”. Also, the “Inhibition of PDGFRβ” value in [7] is given as “potent, low nM inhibition”. Moreover, the “Inhibition of Flt1” value in [8] is reported as “potent, low nM inhibition”. In addition, in [9], the “Inhibition of Ret” value is reported as “potent, low nM inhibition”. Moreover, the Ki in test [10] turned out to be 5.7 nM.
